The results in this text go back to patent US20230219906A1, “MACROCYCLIC-2-AMINO-3-FLUORO-BUT-3-ENAMIDES AS INHIBITORS OF MCL-1” (Janssen Pharmaceutica NV, priority 2020, published 2023).

Read-outs that look alike come from different tables or passages of the source.

Assay [1] addresses Myeloid Cell Leukemia 1(Mcl-1) (Homo sapiens, UniProt Q07820). Kind of assay: Terbium labeled Mcl-1 HTRF binding assay with Cy5-labeled BIM BH3 peptide. To be noted: displacement of Cy5 Bim BH3 peptide; Ki=IC50/(1+[L]/Kd), [L]=8 nM, Kd=10 nM; 60 minutes at room temperature; read-out: Tb-MCL1 Ki. As to the method: Terbium labeled Myeloid Cell Leukemia 1(Mcl-1) homogeneous time-resolved fluorescence (HTRF) binding assay utilizing the BIM BH3 peptide (H2N—(C/Cy5Mal) WIAQELRRIGDEFN-OH) as the binding partner for Mcl-1.
This assay evaluated inhibition of the BH3 domain: Mcl-1 interaction by measuring the displacement of Cy5-labeled BIM BH3 peptide (H2N—(C/Cy5Mal) WIAQELRRIGDEFN-OH) in the HTRF assay format.
The following assay and stock buffers were prepared for use in the assay: (a) Stock buffer: 10 mM Tris-HCl, pH=7.5+150 mM NaCl, filtered, sterilized, and stored at 4° C.; and (b) 1X assay buffer, where the following ingredients were added fresh to stock buffer: 2 mM dithiothreitol (DTT), 0.0025% Tween-20, 0.1 mg/mL bovine serum albumin (BSA). The 1X Tb-Mcl-1+Cy5 Bim peptide solution was prepared by diluting the protein stock solution using the 1X assay buffer (b) to 25 pM Tb-Mcl-1 and 8 nM Cy5 Bim peptide.
Using the Acoustic ECHO, 100 nL of 100x test compound(s) were dispensed into individual wells of a white 384-well Perkin Elmer Proxiplate, for a final compound concentration of 1× and final DMSO concentration of 1%. Inhibitor control and neutral control (NC, 100 nL of 100% DMSO) were stamped into columns 23 and 24 of assay plate, respectively. Into each well of the plate was then dispensed 10 μL of the 1X Tb-Mcl-1+Cy5 Bim peptide solution. The plate was centrifuged with a cover plate at 1000 rpm for 1 minute, then incubated for 60 minutes at room temperature with plates covered.
The TR-FRET signal was read on an BMG PHERAStar FSX MicroPlate Reader at room temperature using the HTRF optic module (HTRF: excitation: 337 nm, light source: laser, emission A: 665 nm, emission B: 620 nm, integration start: 60 μs, integration time: […]).
The BMG PHERAStar FSX MicroPlate Reader was used to measure fluorescence intensity at two emission wavelengths—665 nm and 620 nm—and report relative fluorescence units (RFU) for both emissions, as well as a ratio of the emissions (665 nm/620 nm)*10,000. The RFU values were normalized to percent inhibition as follows:
% inhibition=(((NC−IC)−(compound−IC))/(NC−IC))*100
where IC (inhibitor control, low signal)= mean signal of 1X Tb-MCl-1+Cy5 Bim peptide+inhibitor control or 100% inhibition of Mcl-1; NC (neutral control, high signal)= mean signal 1X Tb-MCl-1+Cy5 Bim peptide with DMSO only or 0% inhibition An 11-point dose response curve was generated to determine IC50 values (using GenData) based on the following equation:
Y=Bottom+(Top−Bottom)/(1+10∧((log IC50−X)*HillSlope))
where Y=% inhibition in the presence of X inhibitor concentration; Top=100% inhibition derived from the IC (mean signal of Mcl-1+inhibitor control); Bottom=0% inhibition derived from the NC (mean signal of Mcl-1+DMSO); Hillslope=Hill coefficient; and IC50=concentration of compound with 50% inhibition in relation to top/neutral control (NC).
In this assay [L]=8 nM and Kd=10 nM
In general terms: Time-resolved FRET reads energy transfer from a long-lived donor to a nearby acceptor.

Assay [2] deals with MOLP-8 human multiple myeloma cell line. Kind of assay: Caspase-Glo 3/7 apoptosis induction assay in MOLP-8 cells. To be noted: caspase-3/7 activity, 2 hours at 37° C., averaged over all runs on all batches, read-out: MOLP8 AC50. In kind it is cell-based. An excerpt: MCL-1 is a regulator of apoptosis and is highly over-expressed in tumor cells that escape cell death. The assay evaluates the cellular potency of small-molecule compounds targeting regulators of the apoptosis pathway, primarily MCL-1, Bfl-1, Bcl-2, and other proteins of the Bcl-2 family. Protein-protein inhibitors disrupting the interaction of anti-apoptotic regulators with BH3-domain proteins initiate apoptosis.
The Caspase-Glo® 3/7 Assay is a luminescent assay that measures caspase-3 and −7 activities in purified enzyme preparations or cultures of adherent or suspension cells. The assay provides a proluminescent caspase-3/7 substrate, which contains the tetrapeptide sequence DEVD. This substrate is cleaved to release aminoluciferin, a substrate of luciferase used in the production of light. Addition of the single Caspase-Glo® 3/7 Reagent in an “add-mix-measure” format results in cell lysis, followed by caspase cleavage of the substrate and generation of a “glow-type” luminescent signal.
This assay uses the MOLP-8 human multiple myeloma cell line, which is sensitive to MCL-1 inhibition.
Cell cultures were maintained between 0.2 and 2.0×10^6 cells/mL. The cells were harvested by collection in 50 mL conical tubes. The cells were then pelleted at 500 g for 5 mins before removing supernatant and resuspension in fresh pre-warmed culture medium. The cells were counted and diluted as needed.
The assay reagent was prepared by transferring the buffer solution to the substrate vial and mixing. The solution may be stored for up to 1 week at 4° C. with negligible loss of signal.
Compounds were delivered in assay-ready plates (Proxiplate) and stored at −20° C. Assays always include 1 reference compound plate containing reference compounds. The plates were spotted with 40 nL of compounds (0.5% DMSO final in cells; serial dilution; […] highest conc. 1/3 dilution, 10 doses, duplicates). The compounds were used at room temperature and 4 μL of pre-warmed media was added to all wells except column 2 and 23. The negative control was prepared by adding 1% DMSO in media. The positive control was prepared by adding the appropriate positive control compound in final concentration of […] in media. The plate was prepared by adding 4 μL negative control to column 23, 4 μL positive control to column 2 and 4 μL cell suspension to all wells in the plate. The plate with cells was then incubated at 37° C. for 2 hours. The assay signal reagent is the Caspase-Glo solution described above, and 8 μL was added to all wells. The plates were then sealed and measured after 30 minutes.
The activity of a test compound was calculated as percent change in apoptosis induction as follows:
% Effect (AC50)=100−(sample-LC)/(HC-LC)*100
% Control=(sample/HC)*100
% Control min=(sample-LC)/(HC-LC)*100

Sequence of Myeloid Cell Leukemia 1(Mcl-1) (Q07820 whole entry, the tested form may be a part): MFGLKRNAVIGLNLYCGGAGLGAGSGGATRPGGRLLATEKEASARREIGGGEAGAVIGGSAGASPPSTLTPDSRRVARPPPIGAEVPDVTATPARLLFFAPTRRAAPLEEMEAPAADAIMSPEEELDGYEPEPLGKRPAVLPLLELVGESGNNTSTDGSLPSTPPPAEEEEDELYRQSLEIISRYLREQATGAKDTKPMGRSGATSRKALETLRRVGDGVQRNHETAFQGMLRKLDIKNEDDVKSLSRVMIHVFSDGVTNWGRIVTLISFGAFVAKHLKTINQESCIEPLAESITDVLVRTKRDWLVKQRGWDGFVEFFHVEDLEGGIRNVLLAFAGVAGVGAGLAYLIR

Turning to `C[C@@H]1[C@@H](C)C/C=C(\F)[C@H](C(=O)N2CCC(F)(F)CC2)N2CCC[C@H]2CN2C[C@@]3(CCCc4cc(Cl)ccc43)COc3ccc(cc32)C(=O)NS1(=O)=O` [Compound 43], in assay [1], the Ki (usually the dissociation constant of the complex between target and ligand, obtained from inhibition or displacement) was 0.438 nM. In addition, the AC50 (usually the midpoint of the concentration-response curve, whichever way the signal moves) in assay [2] (Homo sapiens, MOLP-8, 2 h) came to 399 nM.
For `COCCN(CCOC)C(=O)[C@H]1/C(F)=C/C[C@H](C)[C@@H](C)S(=O)(=O)NC(=O)c2ccc3c(c2F)N(C[C@@H]2CCCN21)C[C@@]1(CCCc2cc(Cl)ccc21)CO3` [Compound 17], in that order: 0.032 nM and 234 nM.
Turning to `C[C@@H]1[C@@H](C)C/C=C(\F)[C@@H](C(=O)N2C[C@H]3C[C@@H]2CO3)N2CCC[C@H]2CN2C[C@@]3(CCCc4cc(Cl)ccc43)COc3ccc(cc32)C(=O)NS1(=O)=O` [Compound 10], in assay [1], the Ki came to 0.227 nM. Further, in assay [2] (Homo sapiens, MOLP-8, 2 h), the AC50 came to 285 nM.
`C[C@@H]1[C@@H](C)C/C=C(\F)[C@H](C(=O)N2CCN(C)CC2)N2CCC[C@H]2CN2C[C@@]3(CCCc4cc(Cl)ccc43)COc3ccc(cc32)C(=O)NS1(=O)=O` [Compound 13]: the Ki in assay [1] worked out at 0.059 nM. Moreover, the concentration at half-maximal activity (AC50) in assay [2] (Homo sapiens, MOLP-8, 2 h) is 297 nM.
Consider `C[C@@H]1[C@@H](C)C/C=C(\F)[C@H](C(=O)N(C)C2CCCOC2)N2CCC[C@H]2CN2C[C@@]3(CCCc4cc(Cl)ccc43)COc3ccc(cc32)C(=O)NS1(=O)=O` (single isomer, unassigned) [Compound 63], for which, in assay [1], the Ki was found to be 0.041 nM. Further, the concentration at half-maximal activity (AC50) in assay [2] was 57.4 nM.
As to `COCCN(CCOC)C(=O)[C@H]1/C(F)=C/C[C@H](C)[C@@H](C)S(=O)(=O)NC(=O)c2ccc3c(c2)N(C[C@@H]2CCCN21)C[C@@]1(CCCc2cc(Cl)ccc21)CO3` [Compound 39], the inhibitory constant (Ki) in assay [1] turned out to be 0.081 nM. Besides, the AC50 in assay [2] (Homo sapiens, MOLP-8, 2 h) worked out at 19.7 nM.
Turning to `COCCN1CCC(CN(C)C(=O)[C@H]2/C(F)=C/C[C@H](C)[C@@H](C)S(=O)(=O)NC(=O)c3ccc4c(c3)N(C[C@@H]3CCCN32)C[C@@]2(CCCc3cc(Cl)ccc32)CO4)CC1` [Compound 85], the Ki in assay [1] was determined as 0.025 nM. Moreover, the AC50 in assay [2] (Homo sapiens, MOLP-8, 2 h) amounted to 759 nM.
Taken in the same sequence, the figures for `C[C@@H]1[C@@H](C)C/C=C(\F)[C@H](C(=O)N(C)Cc2nnn(C)n2)N2CCC[C@H]2CN2C[C@@]3(CCCc4cc(Cl)ccc43)COc3ccc(cc32)C(=O)NS1(=O)=O` [Compound 67] were 0.037 nM and 120 nM.
For `COCCN(CCOC)C(=O)[C@H]1/C(F)=C/C[C@H](C)[C@@H](C)S(=O)(=O)NC(=O)c2ccc3c(c2)N(C[C@@H]2CCCN21)C[C@@]1(CCOc2cc(Cl)ccc21)CO3` [Compound 77], in that order: 0.027 nM and 144 nM.
For `C[C@@H]1[C@@H](C)C/C=C(\F)[C@H](C(=O)N(C)CCCN2CCOCC2)N2CCC[C@H]2CN2C[C@@]3(CCCc4cc(Cl)ccc43)COc3ccc(cc32)C(=O)NS1(=O)=O` [Compound 5], in that order: 0.026 nM and 111 nM.
Consider `C[C@@H]1[C@@H](C)C/C=C(\F)[C@H](C(=O)N(C)CCOC2CCOCC2)N2CCC[C@H]2CN2C[C@@]3(CCCc4cc(Cl)ccc43)COc3ccc(cc32)C(=O)NS1(=O)=O` [Compound 35], for which the Ki in assay [1] was found to be 0.066 nM. For the same molecule, in assay [2] (Homo sapiens, MOLP-8, 2 h), the AC50 worked out at 90.1 nM.
For `C[C@@H]1[C@@H](C)C/C=C(\F)[C@H](C(=O)N(C)CCN2CCOCC2C(F)(F)F)N2CCC[C@H]2CN2C[C@@]3(CCCc4cc(Cl)ccc43)COc3ccc(cc32)C(=O)NS1(=O)=O` (mixture of isomers) [Compound 50], in that order: 0.146 nM and 175 nM.
Taken in the same sequence, the figures for `COC1CN(C(=O)[C@H]2/C(F)=C/C[C@H](C)[C@@H](C)S(=O)(=O)NC(=O)c3ccc4c(c3)N(C[C@@H]3CCCN32)C[C@@]2(CCCc3cc(Cl)ccc32)CO4)C1` [Compound 25] were 0.072 nM and 154 nM.
Regarding `C[C@@H]1[C@@H](C)C/C=C(\F)[C@H](C(=O)N(C)CC2CCCOC2)N2CCC[C@H]2CN2C[C@@]3(CCCc4cc(Cl)ccc43)COc3ccc(cc32)C(=O)NS1(=O)=O` (single isomer, unassigned) [Compound 65], the Ki in assay [1] is 0.062 nM. Moreover, the AC50 in assay [2] is 56.7 nM.
For `C[C@@H]1[C@@H](C)C/C=C(\F)[C@H](C(=O)N(C)CC2CCOC2)N2CCC[C@H]2CN2C[C@@]3(CCCc4cc(Cl)ccc43)COc3ccc(cc32)C(=O)NS1(=O)=O` (single isomer, unassigned) [Compound 57], in that order: 0.051 nM and 84.4 nM.
Regarding `COCCN(CCN1CCOCC1)C(=O)[C@H]1/C(F)=C/C[C@H](C)[C@@H](C)S(=O)(=O)NC(=O)c2ccc3c(c2)N(C[C@@H]2CCCN21)C[C@@]1(CCCc2cc(Cl)ccc21)CO3` [Compound 76], in assay [1], the Ki was 0.017 nM. The AC50 in assay [2] (Homo sapiens, MOLP-8, 2 h) was found to be 36.7 nM.
With `CC1CN(CCN(C)C(=O)[C@H]2/C(F)=C/C[C@H](C)[C@@H](C)S(=O)(=O)NC(=O)c3ccc4c(c3)N(C[C@@H]3CCCN32)C[C@@]2(CCCc3cc(Cl)ccc32)CO4)CC(C)O1` (mixture of isomers) [Compound 45], in assay [1], the inhibition constant (Ki) amounted to 0.113 nM. For the same molecule, in assay [2], the half-maximal activity concentration (AC50) came to 113 nM.
With `C[C@@H]1[C@@H](C)C/C=C(\F)[C@H](C(=O)N2C[C@@H]3OCCO[C@@H]3C2)N2CCC[C@H]2CN2C[C@@]3(CCCc4cc(Cl)ccc43)COc3ccc(cc32)C(=O)NS1(=O)=O` [Compound 53], the Ki in assay [1] is 0.069 nM. Besides, the AC50 in assay [2] (Homo sapiens, MOLP-8, 2 h) was 169 nM.
For `C[C@@H]1[C@@H](C)C/C=C(\F)[C@H](C(=O)N2CCCC3(CC3)C2)N2CCC[C@H]2CN2C[C@@]3(CCCc4cc(Cl)ccc43)COc3ccc(cc32)C(=O)NS1(=O)=O` (single isomer, unassigned) [Compound 16], in that order: 0.446 nM and 446 nM.
